Key:
MV411 cell line = assay: Cell viability assay ([…]-GLO), MV411; assay type: cell-based; details: for IC50: MV411 (ITD-FLT3+), 72 hours treatment; for FLT3-ITD+ Selectivity (K562/MV411): ratio K562/MV411
ROCK2 = ROCK2 (Homo sapiens (Human), UniProt O75116); assay: ROCK2 kinase inhibition assay (peptide phosphorylation, LABCHIP 3000); assay type: biochemical; details: 7 μM ATP, 2.5 nM ROCK2, 3 hours at 25° C.
Method: The peptide is phosphorylated by the protein kinase ROCK1 or ROCK2. The ROCK1 or ROCK2 enzyme, substrate, and cofactors (ATP and Mg^2+) are combined in a well of a microtiter plate and incubated for 3 hours at 25° C. in the presence or absence of an inhibitor compound. At the end of the incubation, the reaction is quenched by the addition of an EDTA-containing buffer. The substrate and product are separated and quantified electrophoretically using the microfluidic-based LABCHIP® 3000 Drug Discovery System from Caliper Life Sciences (Hopkinton, Mass.).
The components of the assay mixture are:
10 μM Sodium Orthovanadate
10 LM Beta-Glycerophosphate
5 μM ATP (for ROCK1) or 7 μM ATP (for ROCK2)
3 nM ROCK1 or 2.5 nM ROCK2 enzyme
Substrate and product peptides present in each sample are separated electrophoretically using the LABCHIP® 3000 capillary electrophoresis instrument. […] Change in the relative fluorescence intensity of the substrate and product peaks is the parameter measured reflecting enzyme activity. Capillary electrophoregramms (RDA acquisition files) are analyzed using HTS Well Analyzer software (Caliper Life Sciences, Hopkinton, Mass.). The kinase activity in each sample is determined as the product to sum ratio (PSR): P/(S+P), where P is the peak height of the product peptide and S is the peak height of the substrate peptide. For each compound, enzyme activity is measured at various concentrations (12 concentrations of compound spaced by 3× dilution intervals). Negative control samples (0%-inhibition in the absence of inhibitor) and positive control samples (100%-inhibition in the presence of 20 mM EDTA) are assembled in replicates of four and are used to calculate %-inhibition values for each compound at each concentration. Percent inhibition (Pinh) is determined using the following equation: Pinh=(PSRO %−PSRinh)/(PSRO %−PSR100%)*100
where PSRinh is the product sum ratio in the presence of inhibitor, PSRO % is the average product sum ratio in the absence of inhibitor, and PSR100% is the average product sum ratio in 100%-inhibition control samples. The IC50 values of inhibitors are determined by fitting the inhibition curves (Pinh versus inhibitor concentration) by the 4-parameter sigmoidal dose-response model using XLfit 4 software (IBDS).

K562 cell line = assay: Cell viability assay ([…]-GLO), K562; assay type: cell-based; details: K562 (does not express ITD-FLT3), 72 hours treatment
Method: Cell viability in the presence of varying concentrations of the above listed compounds at different time points was used to assess cytotoxicity and the effect of the compounds on cell proliferation.
Cell viability was measured by the […]-GlO® cell viability assay from Promega (Madison, Wis.). The […]-GlO Luminescent Cell Viability Assay is a homogeneous method to determine the number of viable cells in culture based on quantitation of the ATP present, which signals the presence of metabolically active cells. Following treatment, […]-GlO® is added to treatment wells and incubated at 37° C. Luminescence values were measured at using a Molecular Devices Spectramax microplate reader.
Cells were grown to 70% confluency, trypsinized, counted, and seeded in 96 well flat-bottom plates at a final concentration of 2.5×10^3-5×10^3 cells/well (Day 0). Cells were allowed to incubate in growth media for 24 hours. Treatment with the test agents or standard agents began on Day 1 and continued for 72 hours. At the 72-hour time point, treatment containing media was removed. Viable cell numbers were quantified by the […]-GLO® cell viability assay as described above. Results from these studies were used to calculate an IC50 value (concentration of drug that inhibits cell growth by 50 percent of control) for each compound.
For single agent and combination studies, data from each experiment was collected and expressed as % Cell Growth using the following calculation: % Cell Growth=(ftest/fvehicle)×100
Where ftest is the luminescence of the tested sample, and fvehicle is the luminescence of the vehicle in which the drug is dissolved. Dose response graphs and IC50 values were generated using Prism 6 software (GraphPad) using the following equation: Y=(Top−Bottom)/(1+10^((logIC50-X)−HillSlope))
Where X is the logarithm of the concentration and Y is the response. Y starts at the Bottom and goes to the Top with a sigmoid shape.
The experiments also evaluated the selectivity of the compounds for inhibiting growth of cancer cells carrying a mutation in the Flt3 gene. The MV411 cell line expresses the mutant allele of Flt3 with internal tandem duplications (ITD) of the gene. See Quentmeier et al., “FLT3 Mutations in Acute Myeloid Leukemia Cell Lines,” Leukemia 17(1), 2003, 120-124. […] See Grafone et al., “Monitoring of FLT3 Phosphorylation Status and Its Response to Drugs By Flow Cytometry in AML Blast Cells,” Hematol Oncol. 26(3), 2008, 159-166.

Sequence of ROCK2 (O75116 whole entry, species assumed): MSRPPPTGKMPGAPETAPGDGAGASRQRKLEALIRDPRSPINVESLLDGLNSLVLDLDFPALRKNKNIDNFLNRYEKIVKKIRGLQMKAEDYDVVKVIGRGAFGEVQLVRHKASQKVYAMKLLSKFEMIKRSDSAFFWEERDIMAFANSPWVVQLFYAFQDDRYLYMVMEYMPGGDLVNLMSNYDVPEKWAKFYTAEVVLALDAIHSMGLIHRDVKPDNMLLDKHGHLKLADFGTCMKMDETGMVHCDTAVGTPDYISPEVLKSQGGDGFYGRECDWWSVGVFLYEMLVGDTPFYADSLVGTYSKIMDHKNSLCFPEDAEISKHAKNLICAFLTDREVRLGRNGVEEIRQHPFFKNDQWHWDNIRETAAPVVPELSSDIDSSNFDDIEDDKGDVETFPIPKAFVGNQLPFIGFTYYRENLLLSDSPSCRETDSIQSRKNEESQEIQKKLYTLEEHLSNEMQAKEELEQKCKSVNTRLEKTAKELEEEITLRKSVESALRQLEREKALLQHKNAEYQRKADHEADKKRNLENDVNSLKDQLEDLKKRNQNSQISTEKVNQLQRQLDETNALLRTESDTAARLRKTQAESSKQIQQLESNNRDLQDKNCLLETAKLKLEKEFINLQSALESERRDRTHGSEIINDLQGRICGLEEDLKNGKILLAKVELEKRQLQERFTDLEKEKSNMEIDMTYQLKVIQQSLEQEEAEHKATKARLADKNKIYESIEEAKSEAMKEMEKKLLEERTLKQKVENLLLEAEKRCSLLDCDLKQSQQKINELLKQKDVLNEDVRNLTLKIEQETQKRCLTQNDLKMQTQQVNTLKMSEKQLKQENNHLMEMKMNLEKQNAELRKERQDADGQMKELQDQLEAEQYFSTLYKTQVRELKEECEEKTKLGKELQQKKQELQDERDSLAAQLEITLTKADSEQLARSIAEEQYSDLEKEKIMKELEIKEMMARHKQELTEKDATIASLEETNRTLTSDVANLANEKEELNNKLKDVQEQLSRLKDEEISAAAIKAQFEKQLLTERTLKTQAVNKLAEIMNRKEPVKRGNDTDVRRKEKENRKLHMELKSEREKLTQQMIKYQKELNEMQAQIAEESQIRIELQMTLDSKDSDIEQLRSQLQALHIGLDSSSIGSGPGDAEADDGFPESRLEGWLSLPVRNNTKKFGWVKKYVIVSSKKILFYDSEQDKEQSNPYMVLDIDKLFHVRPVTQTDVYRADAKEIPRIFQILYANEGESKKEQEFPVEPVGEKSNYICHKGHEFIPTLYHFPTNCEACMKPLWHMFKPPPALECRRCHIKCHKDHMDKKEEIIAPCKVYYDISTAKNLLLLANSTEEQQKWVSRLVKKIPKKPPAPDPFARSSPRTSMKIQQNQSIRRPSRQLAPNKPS

IC50 (MV411 cell line; Homo sapiens, MV4-11) | IC50 (ROCK2) | IC50 (K562 cell line; Homo sapiens) | IC50 (K562 cell line) | IC50 (MV411 cell line) | Structure (SMILES) | FLT3-ITD+ Selectivity (K562/MV411) (MV411 cell line)
18.9 µM | – | – | – | – | COc1cccc(CN(CCN(C)C)C(=O)c2cccc([C@@H](CO)NC(=O)c3ccc(-c4ccncc4)cc3)c2)c1 [Compound 25] | –
1.45 µM | 0.00438 µM | > 100 µM | – | – | O=C(NC1CCCC1)c1cccc([C@@H](CO)NC(=O)c2ccc(-c3ccncc3)cn2)c1 [Compound 51] | >70
0.8 µM | 0.0017 µM | 35 µM | – | – | O=C(Nc1ccccc1)c1cccc([C@@H](CO)NC(=O)c2ccc(-c3ccncc3)cc2)c1 [Compound 9] | 47
– | 0.00068 µM | – | > 100 µM | 0.03 µM | O=C(NC1CCN(CC(F)(F)F)CC1)c1cccc([C@@H](CO)NC(=O)c2ccc(-c3ccncc3)cc2)c1 [Compound 92] | >3061
0.28 µM | 0.00046 µM | > 100 µM | – | – | CCN1CCC(CNC(=O)c2cccc([C@@H](CO)NC(=O)c3ccc(-c4ccncc4)cc3)c2)CC1 [Compound 59] | >361
0.16 µM | 0.0005 µM | 33 µM | – | – | O=C(NCc1cccc(F)c1)c1cccc([C@@H](CO)NC(=O)c2ccc(-c3ccncc3)cc2)c1 [Compound 75] | 207
0.1 µM | 0.0005 µM | 89 µM | – | – | CN(C)C1(CNC(=O)c2cccc([C@@H](CO)NC(=O)c3ccc(-c4ccncc4)cc3)c2)CCCC1 [Compound 72] | 891
– | 0.0093 µM | – | – | – | CN1CCc2ccc(NC(=O)c3cccc([C@@H](CO)NC(=O)c4ccc(-c5ccn[nH]5)cc4)c3)cc2C1 [Compound 43] | –
15.9 µM | 0.0196 µM | > 100 µM | – | – | COc1ccc(C(=O)N[C@H](CO)c2cccc(C(=O)Nc3nc4c(s3)CN(C)CC4)c2)cc1C [Compound 18] | >6
0.07 µM | 0.0006 µM | 28 µM | – | – | COc1cccc(CNC(=O)c2cccc([C@@H](CO)NC(=O)c3ccc(-c4ccncc4)cc3)c2)c1 [Compound 65] | 393
0.09 µM | 0.00188 µM | 11 µM | – | – | O=C(NC1CCCC1)c1cccc([C@@H](CO)NC(=O)c2ccc(-c3cn[nH]c3)cc2)c1 [Compound 46] | 122
– | 0.00653 µM | – | – | – | CN1CCc2ccc(NC(=O)c3cccc([C@@H](CO)NC(=O)c4cccc(-c5ccncc5)c4)c3)cc2C1 [Compound 41] | –
0.41 µM | 0.0025 µM | > 100 µM | – | – | COc1cc(-c2ccncc2)ccc1C(=O)N[C@H](CO)c1cccc(C(=O)NC2CCCC2)c1 [Compound 110] | 246
2.67 µM | 0.0091 µM | 41 µM | – | – | COCC1(NC(=O)c2cccc([C@@H](CO)NC(=O)c3ccc(-c4ccncc4)cc3)c2)CCCC1 [Compound 67] | 15
65.1 µM | – | – | – | – | CN1CCOc2ccc(NC(=O)c3cccc([C@@H](CO)NC(=O)c4ccc(-c5ccncc5)cc4)c3)cc2C1 [Compound 29] | –
8.5 µM | 0.0075 µM | > 100 µM | – | – | Cc1cc(-c2ccncc2)ccc1C(=O)N[C@H](CO)c1cccc(C(=O)NC2CCCC2)c1 [Compound 88] | >12
0.2 µM | 0.0012 µM | 8 µM | – | – | C[C@@H](NC(=O)c1ccc(-c2ccncc2)cc1)c1cccc(C(=O)Nc2ccc3c(c2)CN(C)CC3)c1 [Compound 6] | 40
0.1 µM | 0.00033 µM | > 100 µM | – | – | CN1CCC(NC(=O)c2cccc([C@@H](CO)NC(=O)c3ccc(-c4ccncc4)cc3)c2)CC1 [Compound 50] | >1010
0.08 µM | 0.0006 µM | 27 µM | – | – | COC1(CNC(=O)c2cccc([C@@H](CO)NC(=O)c3ccc(-c4ccncc4)cc3)c2)CCC1 [Compound 73] | 337
– | 0.0726 µM | – | – | – | CN1CCc2ccc(NC(=O)c3cccc([C@@H](CO)NC(=O)c4cccc(-c5ccn[nH]5)c4)c3)cc2C1 [Compound 42] | –
3.6 µM | – | > 100 µM | – | – | O=C(NC1CCCC1)c1cccc([C@@H](CO)NC(=O)c2cccc(-c3cn[nH]c3)c2)c1 [Compound 83] | >28

IC50 (MV411 cell line; Homo sapiens, MV4-11) | IC50 (ROCK2) | IC50 (K562 cell line; Homo sapiens) | IC50 (K562 cell line) | IC50 (MV411 cell line) | Structure (SMILES) | FLT3-ITD+ Selectivity (K562/MV411) (MV411 cell line)
0.02 µM | 0.0003 µM | > 100 µM | – | – | C[C@@H](NC(=O)c1ccc(-c2ccncc2)cc1)c1cccc(C(=O)NCC2CCN(C)CC2)c1 [Compound 49] | >5050
12.3 µM | 0.0027 µM | > 100 µM | – | – | CNC(=O)c1cccc([C@@H](CO)NC(=O)c2ccc(-c3ccncc3)cc2)c1 [Compound 11] | >8
20 µM | 0.056 µM | – | – | – | CN(C(=O)c1cccc([C@@H](CO)NC(=O)c2ccc(-c3ccncc3)cc2)c1)C1CC1 [Compound 38] | –
3.8 µM | 0.00057 µM | > 100 µM | – | – | O=C(NCC1CCOCC1)c1cccc([C@@H](CO)NC(=O)c2ccc(-c3ccncc3)cc2)c1 [Compound 22] | >27
0.27 µM | 0.0008 µM | 23 µM | – | – | COC1(CNC(=O)c2cccc([C@@H](CO)NC(=O)c3ccc(-c4ccncc4)cc3)c2)CCCC1 [Compound 87] | 85
3.4 µM | 0.00041 µM | – | – | – | C[C@@H](NC(=O)c1ccc(-c2ccncc2)cc1)c1cccc(C(=O)NCC2CCC(F)(F)CC2)c1 [Compound 40] | –
0.12 µM | 0.00047 µM | > 100 µM | – | – | CC(C)N1CCC(NC(=O)c2cccc([C@@H](CO)NC(=O)c3ccc(-c4ccncc4)cc3)c2)CC1 [Compound 55] | >842
0.11 µM | 0.00074 µM | 17 µM | – | – | C[C@@H](NC(=O)c1ccc(-c2cn[nH]c2)cc1)c1cccc(C(=O)NC2CCCC2)c1 [Compound 97] | 154
13.5 µM | 0.0225 µM | > 100 µM | – | – | COc1ccc(C(=O)N[C@H](C)c2cccc(C(=O)Nc3nc4c(s3)CN(C)CC4)c2)cc1C [Compound 17] | >7
0.7 µM | – | 0.8 µM | – | – | Cc1c[nH]c2nccc(Oc3c(F)cc(Nc4cc(Cl)nc(N)n4)cc3F)c12 [Compound A, reference compound] | –
3 µM | 0.0017 µM | 27 µM | – | – | O=C(NCc1ccccc1)c1cccc([C@@H](CO)NC(=O)c2ccc(-c3ccncc3)cc2)c1 [Compound 13] | 9
– | 0.02 µM | – | – | – | O=C(NC1CCCC1)c1cccc([C@@H](CO)NC(=O)c2cccc(-c3cn[nH]c3)c2)c1 [Compound 106] | –
13.2 µM | – | 44 µM | – | – | COc1ccc(C(=O)N[C@H](CO)c2cccc(C(=O)Nc3ccc4c(c3)CN(C)CC4)c2)cc1C [Compound 19] | 3
– | 0.00069 µM | – | – | – | COCCOc1cccc(CNC(=O)c2cccc([C@@H](CO)NC(=O)c3ccc(-c4ccncc4)cc3)c2)c1 [Compound 34] | –
– | 0.00023 µM | – | – | – | C[C@H](c1cccc(C(=O)NC2CCCC2)c1)N(CCN(C)C)C(=O)c1ccc(-c2ccncc2)cc1 [Compound 98] | –
1.7 µM | 0.003 µM | – | – | – | CN1CCc2ccc(NC(=O)c3cccc([C@@H](CO)NC(=O)c4ccc(-c5ccncc5)cn4)c3)cc2C1 [Compound 37] | –
– | 0.104 µM | – | – | – | COc1ccc(C(=O)N[C@H](C)c2cccc(C(=O)NCC3CCN(C(C)C)CC3)c2)cc1C [Compound 68] | –
– | 0.0013 µM | – | – | – | CN1Cc2ccc(NC(=O)c3cccc([C@@H](CO)NC(=O)c4ccc(-c5ccncc5)cc4)c3)cc2C1 [Compound 8] | –
– | 0.257 µM | – | – | – | CN(C(=O)c1ccc(-c2ccncc2)cc1)[C@H](CO)c1cccc(C(=O)NC2CCCC2)c1 [Compound 45] | –
– | 0.00038 µM | – | – | – | CN(C)Cc1cccc(CNC(=O)c2cccc([C@@H](CO)NC(=O)c3ccc(-c4ccncc4)cc3)c2)c1 [Compound 33] | –
– | 0.24 µM | – | – | – | CN1CCc2ccc(NC(=O)c3cccc([C@@H](CO)NC(=O)c4ccc(-c5cccnc5)cc4)c3)cc2C1 [Compound 44] | –

Source: patent US10738007B2, “Amide compounds as kinase inhibitors, compositions and methods of treatment” (TRANSLATIONAL DRUG DEVELOPMENT, LLC, priority 2016, dated 2020)
